Each compound was assayed against MCH receptor (Homo sapiens, UniProt Q99705) (assay: High throughput functional screening FLIPR/FDSS6000: inhibition of MCH-evoked intracellular Ca2+ changes). Conditions: class by percent of control at 10^-7 M or IC50.
Type: cell-based
Method in brief: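 Cells expressing constitutively active MCH receptor, loaded with 4 μM Fluo4-AM for 1 h at 37 °C, were pretreated 3 min with compound, then challenged with MCH (50 nM for antagonist testing). MCH-evoked [Ca2+]i transients followed by FLIPR or FDSS (ex 488/em 530 nm) over 290 s.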

SMILES	class
CN(C)c1nc(N[C@H]2CC[C@@H](CNC(=O)Nc3ccccc3Br)CC2)nc2ccccc12 [compound 411, N-(2-bromophenyl)-N′-[(cis-4-{[4-(dimethylamino)quinazolin-2-yl]amino}cyclohexyl)methyl]urea]	2 (Class 2: The value of percent of control at 10^−7 M was from 40% to 60% or the value of IC50 was from 50 nM to 200 nM.)
CN(C)c1nc(N[C@H]2CC[C@@H](CNC(=O)NCCc3cccs3)CC2)nc2ccccc12 [compound 757]	3 (Class 3: The value of percent of control at 10^−7 M was more than 60% or the value of IC50 was more than 200 nM.)
CN(C)c1nc(N[C@H]2CC[C@@H](NC(=O)Nc3ccccc3C#N)CC2)nc2ccccc12 [compound 340]	3 (Class 3: The value of percent of control at 10^−7 M was more than 60% or the value of IC50 was more than 200 nM.)
CN(C)c1nc(N[C@H]2CC[C@@H](CNC(=O)Nc3cc([N+](=O)[O-])ccc3F)CC2)nc2ccccc12 [compound 498, N-[(cis-4-{[4-(dimethylamino)quinazolin-2-yl]amino}cyclohexyl)methyl]-N′-(2-fluoro-5-nitrophenyl)urea]	2 (Class 2: The value of percent of control at 10^−7 M was from 40% to 60% or the value of IC50 was from 50 nM to 200 nM.)
CSc1cccc(NC(=S)NC[C@H]2CC[C@@H](Nc3nc(N(C)C)c4ccccc4n3)CC2)c1 [compound 681]	3 (Class 3: The value of percent of control at 10^−7 M was more than 60% or the value of IC50 was more than 200 nM.)
CN(C)c1nc(N[C@H]2CC[C@@H](CNC(=S)Nc3ccc(Br)cc3C(F)(F)F)CC2)nc2ccccc12 [compound 693, N-[4-bromo-2-(trifluoromethyl)phenyl]-N′-[(cis-4-{[4-(dimethylamino)quinazolin-2-yl]amino}cyclohexyl)methyl]thiourea]	2 (Class 2: The value of percent of control at 10^−7 M was from 40% to 60% or the value of IC50 was from 50 nM to 200 nM.)
CCCCNC(=S)NC[C@H]1CC[C@@H](Nc2nc(N(C)C)c3ccccc3n2)CC1 [compound 583]	3 (Class 3: The value of percent of control at 10^−7 M was more than 60% or the value of IC50 was more than 200 nM.)
CCCCCNC(=O)NC[C@H]1CC[C@@H](Nc2nc(N(C)C)c3ccccc3n2)CC1 [compound 454, N-[(cis-4-{[4-(dimethylamino)quinazolin-2-yl]amino}cyclohexyl)methyl]-N′-pentylurea]	2 (Class 2: The value of percent of control at 10^−7 M was from 40% to 60% or the value of IC50 was from 50 nM to 200 nM.)
CC(=O)c1ccc(NC(=S)NC[C@H]2CC[C@@H](Nc3nc(N(C)C)c4ccccc4n3)CC2)cc1 [compound 578]	3 (Class 3: The value of percent of control at 10^−7 M was more than 60% or the value of IC50 was more than 200 nM.)
CN(C)c1nc(N[C@H]2CC[C@@H](NC(=S)Nc3ccccc3C(F)(F)F)CC2)nc2ccccc12 [compound 208]	3 (Class 3: The value of percent of control at 10^−7 M was more than 60% or the value of IC50 was more than 200 nM.)
Cc1cccc(C(C)C)c1NC(=S)NC[C@H]1CC[C@@H](Nc2nc(N(C)C)c3ccccc3n2)CC1 [compound 787]	1 (Class 1: The value of percent of control at 10^−7 M was less than 40% or the value of IC50 was less than 50 nM.)
Cc1cc(C)c(NC(=S)N[C@H]2CC[C@@H](Nc3nc(N(C)C)c4ccccc4n3)CC2)c(C)c1 [compound 248, N-(cis-4-{[4-(dimethylamino)quinazolin-2-yl]amino}cyclohexyl)-N′-mesitylthiourea]	1 (Class 1: The value of percent of control at 10^−7 M was less than 40% or the value of IC50 was less than 50 nM.)
Cc1ccc(NC(=S)N[C@H]2CC[C@@H](Nc3nc(N(C)C)c4ccccc4n3)CC2)c(C)c1 [compound 249, N-(cis-4-{[4-(dimethylamino)quinazolin-2-yl]amino}cyclohexyl)-N′-(2,4-dimethylphenyl)thiourea]	1 (Class 1: The value of percent of control at 10^−7 M was less than 40% or the value of IC50 was less than 50 nM.)

Same assay, conditions: class by percent of control at 10^-7 M or by IC50; read-out: class

IC50	SMILES
< 50 nM	CN(C)c1nc(N[C@H]2CC[C@@H](NC(=O)Nc3c(Cl)cccc3C(F)(F)F)CC2)nc2ccccc12 [compound 89, N-[2-chloro-6-(trifluoromethyl)phenyl]-N′-(cis-4-{[4-(dimethylamino)quinazolin-2-yl]amino}cyclohexyl)urea]
50 to 200 nM	CC(NC(=O)NC1CCC(Nc2nc(N(C)C)c3ccccc3n2)CC1)c1cccc2ccccc12 (centres unmarked) [compound 67, 1-[4-(4-Dimethylamino-quinazolin-2-ylamino)-cyclohexyl]-3-(1-napthalen-1-yl-ethyl)-urea]
> 200 nM	CN(C)c1nc(N[C@H]2CC[C@@H](NC(=O)Nc3cccc(Cl)c3)CC2)nc2ccccc12 [compound 14]
> 200 nM	CN(C)c1nc(N[C@H]2CC[C@@H](NC(=O)Nc3cccc(C#N)c3)CC2)nc2ccccc12 [compound 17]
50 to 200 nM	COC(=O)c1cccc(NC(=O)N[C@H]2CC[C@@H](Nc3nc(N(C)C)c4ccccc4n3)CC2)c1 [compound 128, methyl 3-({[(cis-4-{[4-(dimethylamino)quinazolin-2-yl]amino}cyclohexyl)amino]carbonyl}amino)benzoate]
> 200 nM	CN(C)c1nc(N[C@H]2CC[C@@H](C(=O)NCc3ccc(F)cc3F)CC2)nc2ccccc12 [Example 922, cis-N-(2,4-Difluorobenzyl)-4-{[4-(dimethylamino)quinazolin-2-yl]amino}cyclohexanecarbozamide]
50 to 200 nM	CCc1cccc(NC(=O)N[C@H]2CC[C@@H](Nc3nc(N(C)C)c4ccccc4n3)CC2)c1 [compound 132, N-(cis-4-{[4-(dimethylamino)quinazolin-2-yl]amino}cyclohexyl)-N′-(3-ethylphenyl)urea]

SMILES	IC50
COc1ccccc1OC(=O)NC[C@H]1CC[C@@H](Nc2nc(N(C)C)c3ccccc3n2)CC1 [compound 871]	> 200 nM

Same assay, conditions: class by percent of control at 10^−7 M or by IC50; read-out: class

IC50	SMILES
50 to 200 nM	CN(C)c1nc(N[C@H]2CC[C@@H](NC(=S)Nc3ccccc3Br)CC2)nc2ccccc12 [Example 1014, N-(2-bromophenyl)-N′-(cis-4-{[4-(dimethylamino)quinazolin-2-yl]amino}cyclohexyl)thiourea]
50 to 200 nM	COc1ccc(OC)c(NC(=O)NC[C@H]2CC[C@@H](Nc3nc(N(C)C)c4ccccc4n3)CC2)c1 [Example 1020, N-(2,5-dimethoxyphenyl)-N′-[(cis-4-{[4-(dimethylamino)quinazolin-2-yl]amino}cyclohexyl)methyl]urea]
< 50 nM	CN(C)c1nc(N[C@H]2CC[C@@H](C(=O)NCc3cccc(F)c3F)CC2)nc2ccccc12 [Example 1159, cis-N-(2,3-difluorobenzyl)-4-{[4-(dimethylamino)quinazolin-2-yl]amino}cyclohexanecarboxamide]
< 50 nM	CC(NC(=O)[C@H]1CC[C@@H](Nc2nc(N(C)C)c3ccccc3n2)CC1)c1ccc(F)cc1 (relative stereo) [Example 1138, cis-4-{[4-(dimethylamino)quinazolin-2-yl]amino}-N-[1-(4-fluorophenyl)ethyl]cyclohexanecarboxamide]
< 50 nM	Cc1ccc(C(=O)N[C@H]2CC[C@@H](Nc3nc(N(C)C)c4cc(F)c(F)cc4n3)CC2)cc1 [Example 1206, N-(cis-4-{[4-(dimethylamino)-6,7-difluoroquinazolin-2-yl]amino}cyclohexyl)-4-methylbenzamide]

Source: patent publication US20070010671A1, “Novel quinazoline derivatives and methods of treatment related to the use thereof” (priority 2003, published 2007)
